According to US10517889B2, “Modulators of SMAD7 expression” (Ionis Pharmaceuticals, Inc., priority 2017, dated 2019):
Strand notation (5' to 3'): a small letter for the sugar, then the base; units joined by * are phosphorothioate-linked, units joined directly phosphodiester-linked; [ ] holds rarer units or linkages, { } end groups; capitals alone tell only the bases. e = 2'-O-(2-methoxyethyl) (MOE); [5mC] = 5-methylcytosine; d = 2'-deoxy (DNA)

What follows are substances tested on human SMAD7 mRNA (assay: Antisense inhibition of human SMAD7 mRNA expression in Hep3B cells by 5-10-5 MOE gapmers, single concentration, electroporation, RT-PCR (Example 1, Study 1 and 2)). Conditions: Study 2, electroporation with 15,000 nM antisense oligonucleotide, 5-10-5 MOE gapmers targeting SEQ ID NO: 1 and 2.
Type: cell-based
Method in brief: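 Hep3B cells (20,000/well) electroporated with 5-10-5 MOE gapmer at 5,000 nM or 15,000 nM for approximately 24 h. SMAD7 mRNA quantified by real-time PCR with primer probe set RTS5062 and normalized to RIBOGREEN total RNA. Values are percent inhibition relative to untreated controls.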

| Substance | % inhibition of SMAD7 mRNA expression | % Inhibition |
| --- | --- | --- |
| 771676 (antisense eT*eG*eT*eT*eT*dA*dT*dA*d[5mC]*dA*d[5mC]*dA*dT*dT*dG*e[5mC]*eA*e[5mC]*eA*eA) [compound 771676] | 2% |  |
| 771678 (antisense eT*eT*eA*eT*eT*dT*dT*dT*d[5mC]*dT*dT*dG*dT*dT*dT*eA*eT*eA*e[5mC]*eA) [compound 771678] | 0% |  |
| 771679 (antisense eG*e[5mC]*eA*eT*e[5mC]*dT*dT*dT*dT*d[5mC]*dT*dT*dT*dA*dT*eT*eT*eT*eT*e[5mC]) [compound 771679] | 0% |  |
| 771684 (antisense eA*eT*eT*eT*eG*dG*d[5mC]*dA*dT*dT*dT*dG*dT*dT*dA*eT*eT*eT*eG*e[5mC]) [compound 771684] | 0% |  |
| 771686 (antisense eG*eT*eT*eT*eA*dT*d[5mC]*dT*dT*dT*dT*dT*dT*dA*dA*eT*eT*eT*eG*eG) [compound 771686] | 0% |  |
| 771687 (antisense e[5mC]*eT*eT*eG*eT*dG*dT*dT*dT*dA*dT*d[5mC]*dT*dT*dT*eT*eT*eT*eA*eA) [compound 771687] | 13% |  |
| 771692 (antisense e[5mC]*e[5mC]*e[5mC]*eA*eG*dG*dA*dG*dG*dG*dT*dA*dT*dG*d[5mC]*eA*e[5mC]*eA*e[5mC]*eT) [compound 771692] |  | 18% |
| 771694 (antisense e[5mC]*eT*e[5mC]*e[5mC]*e[5mC]*dA*dG*dG*dA*dG*dG*dG*dT*dA*dT*eG*e[5mC]*eA*e[5mC]*eA) [compound 771694] |  | 0% |
| 771695 (antisense eT*e[5mC]*eT*e[5mC]*e[5mC]*d[5mC]*dA*dG*dG*dA*dG*dG*dG*dT*dA*eT*eG*e[5mC]*eA*e[5mC]) [compound 771695] |  | 22% |
| 771700 (antisense eT*eA*eT*eG*e[5mC]*dA*d[5mC]*dA*d[5mC]*dT*d[5mC]*dT*d[5mC]*d[5mC]*d[5mC]*eA*eG*eG*eA*eG) [compound 771700] |  | 9% |
| 771702 (antisense eA*eG*eG*eG*eT*dA*dT*dG*d[5mC]*dA*d[5mC]*dA*d[5mC]*dT*d[5mC]*eT*e[5mC]*e[5mC]*e[5mC]*eA) [compound 771702] |  | 24% |
| 771703 (antisense eG*eG*eA*eG*eG*dG*dT*dA*dT*dG*d[5mC]*dA*d[5mC]*dA*d[5mC]*eT*e[5mC]*eT*e[5mC]*e[5mC]) [compound 771703] |  | 31% |
| 771707 (antisense eT*eT*eG*eT*eT*d[5mC]*d[5mC]*dT*d[5mC]*dT*dG*d[5mC]*dA*d[5mC]*d[5mC]*e[5mC]*eT*eG*eG*eG) [compound 771707] |  | 42% |
| 771708 (antisense eG*eG*eA*eT*eA*dA*dA*dA*dG*dG*dA*dA*dA*dG*dG*eA*eG*eT*eT*eT) [compound 771708] |  | 0% |
| 771710 (antisense eG*eG*eG*e[5mC]*eT*dG*d[5mC]*d[5mC]*d[5mC]*dA*dT*dT*d[5mC]*d[5mC]*dT*eA*eG*e[5mC]*eG*e[5mC]) [compound 771710] |  | 40% |
| 771716 (antisense eT*e[5mC]*eG*eA*eA*dT*d[5mC]*dA*d[5mC]*d[5mC]*d[5mC]*dT*dT*dT*d[5mC]*e[5mC]*eA*eT*eT*eA) [compound 771716] |  | 24% |
| 771718 (antisense eA*eA*eA*eG*eT*dT*d[5mC]*dT*dA*dG*dT*dG*dT*d[5mC]*dT*eA*e[5mC]*eT*e[5mC]*e[5mC]) [compound 771718] |  | 29% |
| 771719 (antisense eA*e[5mC]*eT*eG*eA*d[5mC]*dT*dT*dG*d[5mC]*dA*dG*dG*dT*dG*eA*e[5mC]*eT*eG*eG) [compound 771719] |  | 35% |
| 771723 (antisense e[5mC]*e[5mC]*eA*eA*eG*dG*dT*dT*dA*d[5mC]*dA*dT*dA*d[5mC]*dA*eA*e[5mC]*e[5mC]*eT*eG) [compound 771723] |  | 44% |

Same assay, conditions: electroporation with 15,000 nM antisense oligonucleotide (Study 2), 5-10-5 MOE gapmers targeting SEQ ID NO: 1 and 2

| Substance | % Inhibition of SMAD7 mRNA | % inhibition of SMAD7 mRNA expression |
| --- | --- | --- |
| 771672 (antisense eT*eT*eT*eT*eT*dT*d[5mC]*dA*dG*dG*dA*dG*dT*d[5mC]*d[5mC]*eT*eT*eT*e[5mC]*eT) [compound 771672] | 30% | 2% |
| 771673 (antisense eA*eG*eG*eT*eT*dT*dT*dT*dT*dT*dT*d[5mC]*dA*dG*dG*eA*eG*eT*e[5mC]*e[5mC]) [compound 771673] |  | 44% |
| 771674 (antisense eA*eT*eA*eA*eA*dT*d[5mC]*dT*d[5mC]*dA*dG*dG*dT*dT*dT*eT*eT*eT*eT*eT) [compound 771674] |  | 0% |
| 771680 (antisense eA*eT*eT*eT*eA*dT*dA*dT*dT*dA*dA*dA*dG*d[5mC]*dA*eA*eA*eG*eT*eG) [compound 771680] | 0% | 0% |
| 771681 (antisense eT*eT*eT*eG*e[5mC]*dA*dT*dT*dT*dA*dT*dA*dT*dT*dA*eA*eA*eG*e[5mC]*eA) [compound 771681] |  | 0% |
| 771682 (antisense eT*eG*eT*eT*eA*dT*dT*dT*dG*d[5mC]*dA*dT*dT*dT*dA*eT*eA*eT*eT*eA) [compound 771682] |  | 18% |
| 771688 (antisense e[5mC]*eG*eT*eT*eT*dA*dA*dT*dG*dG*dA*dA*d[5mC]*dA*dT*eA*eA*eA*e[5mC]*eT) [compound 771688] | 13% | 0% |
| 771689 (antisense eA*eG*eT*eG*eT*dA*d[5mC]*dA*dT*dT*dT*dT*dA*dA*dA*eA*eA*eT*e[5mC]*eG) [compound 771689] |  | 30% |
| 771696 (antisense e[5mC]*eT*e[5mC]*eT*e[5mC]*d[5mC]*d[5mC]*dA*dG*dG*dA*dG*dG*dG*dT*eA*eT*eG*e[5mC]*eA) [compound 771696] | 0% |  |
| 771712 (antisense eA*eT*eT*e[5mC]*eT*dT*dT*dT*dA*dG*d[5mC]*d[5mC]*d[5mC]*dA*dA*e[5mC]*eT*eG*eT*eT) [compound 771712] | 27% |  |
| 771720 (antisense e[5mC]*eA*eG*eG*e[5mC]*dA*dG*dA*dG*d[5mC]*dT*dA*dT*dG*d[5mC]*eT*eT*e[5mC]*eA*eA) [compound 771720] | 37% |  |

Same assay, conditions: electroporation, 5,000 nM, approximately 24 hours, relative to untreated control cells, gapmers targeting SEQ ID NO: 1 and 2

| Substance | % inhibition of SMAD7 mRNA expression |
| --- | --- |
| 771707 (antisense eT*eT*eG*eT*eT*d[5mC]*d[5mC]*dT*d[5mC]*dT*dG*d[5mC]*dA*d[5mC]*d[5mC]*e[5mC]*eT*eG*eG*eG) [compound 771707] | 0% |
| 771723 (antisense e[5mC]*e[5mC]*eA*eA*eG*dG*dT*dT*dA*d[5mC]*dA*dT*dA*d[5mC]*dA*eA*e[5mC]*e[5mC]*eT*eG) [compound 771723] | 0% |

Same assay, conditions: electroporation, 15,000 nM antisense oligonucleotide (Study 2), 5-10-5 MOE gapmers targeting SEQ ID NO: 1 and 2

| Substance | % inhibition of SMAD7 mRNA expression |
| --- | --- |
| 771690 (antisense e[5mC]*e[5mC]*eT*eA*eG*dT*dT*d[5mC]*dG*d[5mC]*dA*dG*dA*dG*dT*e[5mC]*eG*eG*e[5mC]*eT) [compound 771690] | 43% |
| 771696 (antisense e[5mC]*eT*e[5mC]*eT*e[5mC]*d[5mC]*d[5mC]*dA*dG*dG*dA*dG*dG*dG*dT*eA*eT*eG*e[5mC]*eA) [compound 771696] | 0% |
| 771697 (antisense e[5mC]*eA*e[5mC]*eT*e[5mC]*dT*d[5mC]*d[5mC]*d[5mC]*dA*dG*dG*dA*dG*dG*eG*eT*eA*eT*eG) [compound 771697] | 5% |
| 771698 (antisense e[5mC]*eA*e[5mC]*eA*e[5mC]*dT*d[5mC]*dT*d[5mC]*d[5mC]*d[5mC]*dA*dG*dG*dA*eG*eG*eG*eT*eA) [compound 771698] | 43% |
| 771706 (antisense eG*eG*eG*e[5mC]*e[5mC]*dT*dG*dG*dA*d[5mC]*d[5mC]*dA*dA*dA*dT*e[5mC]*e[5mC]*eA*eA*e[5mC]) [compound 771706] | 22% |
| 771712 (antisense eA*eT*eT*e[5mC]*eT*dT*dT*dT*dA*dG*d[5mC]*d[5mC]*d[5mC]*dA*dA*e[5mC]*eT*eG*eT*eT) [compound 771712] | 3% |
| 771713 (antisense eT*eG*e[5mC]*e[5mC]*eT*dA*d[5mC]*dA*d[5mC]*dA*d[5mC]*dA*dA*dA*dA*eA*eG*e[5mC]*e[5mC]*eA) [compound 771713] | 15% |
| 771714 (antisense eT*e[5mC]*eT*eG*eG*dA*d[5mC]*dT*dA*dA*dA*dG*d[5mC]*dT*dT*e[5mC]*e[5mC]*eA*e[5mC]*eG) [compound 771714] | 44% |
| 771720 (antisense e[5mC]*eA*eG*eG*e[5mC]*dA*dG*dA*dG*d[5mC]*dT*dA*dT*dG*d[5mC]*eT*eT*e[5mC]*eA*eA) [compound 771720] | 20% |
| 771721 (antisense e[5mC]*e[5mC]*e[5mC]*eA*eG*d[5mC]*dA*d[5mC]*dT*dG*dT*dG*dA*dT*dG*eT*e[5mC]*e[5mC]*eA*eG) [compound 771721] | 43% |
| 771722 (antisense eA*eG*eA*eG*eG*dG*dA*dG*d[5mC]*dT*d[5mC]*d[5mC]*dA*dG*dG*eA*eA*eT*eT*eT) [compound 771722] | 10% |

Same assay, conditions: electroporation, 15,000 nM, approximately 24 hours, relative to untreated control cells, gapmers targeting SEQ ID NO: 1 and 2

| Substance | % inhibition of SMAD7 mRNA expression |
| --- | --- |
| 771669 (antisense eT*eT*eT*e[5mC]*eT*d[5mC]*dT*d[5mC]*dT*d[5mC]*dA*dA*dA*dG*d[5mC]*eA*e[5mC]*eT*eA*e[5mC]) [compound 771669] | 55% |
| 771677 (antisense eT*eT*eT*e[5mC]*eT*dT*dG*dT*dT*dT*dA*dT*dA*d[5mC]*dA*e[5mC]*eA*eT*eT*eG) [compound 771677] | 21% |
| 771685 (antisense e[5mC]*eT*eT*eT*eT*dT*dT*dA*dA*dT*dT*dT*dG*dG*d[5mC]*eA*eT*eT*eT*eG) [compound 771685] | 17% |
| 771693 (antisense eT*e[5mC]*e[5mC]*e[5mC]*eA*dG*dG*dA*dG*dG*dG*dT*dA*dT*dG*e[5mC]*eA*e[5mC]*eA*e[5mC]) [compound 771693] | 45% |
| 771701 (antisense eG*eG*eT*eA*eT*dG*d[5mC]*dA*d[5mC]*dA*d[5mC]*dT*d[5mC]*dT*d[5mC]*e[5mC]*e[5mC]*eA*eG*eG) [compound 771701] | 34% |
| 771709 (antisense eT*eG*eA*eA*e[5mC]*d[5mC]*d[5mC]*dT*d[5mC]*dA*d[5mC]*dA*dT*d[5mC]*dA*e[5mC]*eA*e[5mC]*eT*e[5mC]) [compound 771709] | 38% |
